Consider one compound from patent US9458137B2, “Substituted indol-5-ol derivatives and their therapeutical applications” (NantBioScience, Inc., priority 2012, dated 2016).

In assay [1] the test system is MLCK(h). Description: Kinase panel activity. To be noted: 0.1 μM, ATP Km. It is filed as biochemical, human. The method, then: (§1) The effect of NTW-3475 on kinase activity was tested for a wide range of kinases and is shown in Table 2: Summary Sheet, Activity % ATP Concentration: Km
The test system of assay [2] is c-RAF(h). Description: Kinase panel activity. Conditions: 0.1 μM, ATP Km. It is filed as biochemical, human. The method, then:
as §1

For assay [3], the system named is human tumor cell lines of the cancer screening panel. Briefly: in vitro antiproliferation, NCI 60 cancer cell line panel (SRB). To be noted: 48 h. It is filed as cell-based. The procedure: NTW-3475 was also tested for its antiproliferative potential using cell lines from the NCI 60 cancer cell line panel.
The human tumor cell lines of the cancer screening panel are grown in RPMI 1640 medium containing 5% fetal bovine serum and 2 mM L-glutamine. For a typical screening experiment, cells are inoculated into 96 well microtiter plates in 100 μL at plating densities ranging from 5,000 to 40,000 cells/well depending on the doubling time of individual cell lines. After cell inoculation, the microtiter plates are incubated at 37° C., 5% CO2, 95% air and 100% relative humidity for 24 h prior to addition of experimental drugs. […]
Following drug addition, the plates are incubated for an additional 48 h at 37° C., 5% CO2, 95% air, and 100% relative humidity. […] Bound stain is subsequently solubilized with 10 mM trizma base, and the absorbance is read on an automated plate reader at a wavelength of 515 nm. […] Using the seven absorbance measurements [time zero, (Tz), control growth, (C), and test growth in the presence of drug at the five concentration levels (Ti)], the percentage growth is calculated at each of the drug concentrations levels. Percentage growth inhibition is calculated as: [(Ti-Tz)/(C-Tz)]×100 for concentrations for which Ti>/=Tz [(Ti-Tz)/Tz]×100 for concentrations for which Ti<Tz.
Three dose response parameters are calculated for each experimental agent. […]

The subject of assay [4] is human MV411 human acute myelogenous leukemia (AML) xenograft. It is filed as in vivo, SCID mice. To be noted: 25, 50 mg/kg, 5-day on, two-day off for two cycles; female SCID mice. The method, then: The objective of the first study was to evaluate antitumor activities of the novel multiple-kinase inhibitor NTW-3475 against human MV411 human acute myelogenous leukemia (AML) xenograft model in female SCID mice.
Four or six animals were randomly assigned to each study group. Each animal was injected subcutaneously in the left and right flank area with 0.1 ml of 1.0×10^8 MV411 cells per mL
Each test or control animal was placed on a 5-day on, two-day off for two cycles of vehicle negative control or 25, 50 mg/kg of NTW-3475. Tumor growth was measured with a digital hand held caliper twice weekly (once tumor emerges) prior to the first dosing and then two to three times weekly until euthanized. Animals were weighed prior to tumor cell injection, prior to dosing, two to three times weekly with tumor growth measurements, and prior to euthanasia.
FIGS. 27-32 depict the results of various concentrations of NTW-3456 on tumor growth in scid mouse/xenograft model of AML using MV411 cells. […] This invention is characterized as it is here was a correlation between the inhibition of the pFLT3 kinase and growth control.

For assay [5], the system named is human K562 chronic myelogenous leukemia (CML) xenograft. Description: K562 CML xenograft model. To be noted: 5-day on, two-day off for two cycles; female SCID mice. It is filed as in vivo, SCID mice. The method, then:
The objective of the second study was to evaluate antitumor activities of novel multiple-kinase inhibitor NTW-3475 in human K562 chronic myelogenous leukemia (CML) xenograft model in female SCID mice.
Four to six animals were randomly assigned to study groups. Each animal was weighed, and then injected subcutaneously in the left and right flank area with 0.1 ml of 8.0×10^7 K562 cells per mL.
Each test or control animal was on a 5-day on, two-day off for two cycles treatment schedule. Tumor growth was measured with a digital hand held caliper twice weekly (once tumor emerges) prior to the first dosing and then two to three times weekly until euthanized. Animals were weighed prior to tumor cell injection, prior to dosing, two to three times weekly with tumor growth measurements, and prior to euthanasia.
FIGS. 34 and 35 depict the results of various concentrations of NTW-3456 on a scid mouse/xenograft model of CML using K562 cells.

Assay [6] relates to human MIAPaCa-2 pancreatic carcinoma xenograft. Briefly: MIAPaCa-2 pancreatic carcinoma xenograft. It is filed as in vivo, athymic nude-Faxn1 mice. The procedure:
The objective of the third study was to evaluate antitumor activities of novel multiple-kinase inhibitor NTW-3475 in human MIAPaCa-2 pancreatic carcinoma xenograft in athymic nude-Faxn1 mice.
Four animals were randomly assigned to study groups. Each animal was weighed, and then injected subcutaneously in the left and right flank area with 0.1 ml of 5.0×10^7 MIAPaCa-2 cells per mL.
Each test or control animal was on a 5-day on, two-day off for two cycles treatment schedule with negative control vehicle, positive control Abraxane at 20 mg/kg or 25, 50 mg/kg of NTW-3475. Tumor growth was measured with a digital hand held caliper twice weekly (once tumor emerges) prior to the first dosing and then two to three times weekly until euthanized.
FIGS. 42-44 depict the results of various concentrations of NTW-3456 on a nude mouse/xenograft the MIAPaCa-2 model of pancreatic carcinoma.
FIGS. 45 and 46 depict the results of various concentrations of NTW-3456, with or without Abraxane on a MiaPaCa-2 model of pancreatic carcinoma.

Each structure is given as a SMILES string.

As for `Cc1cc2c(F)c(Oc3nc(Nc4cc(C5CC5)[nH]n4)cc(N4CCN(C)CC4)n3)cc(F)c2[nH]1` [NTW-3475], the Activity % in assay [1] turned out to be 110%; in assay [2] it was 94%. Further, in assay [3], the antiproliferative activity result is on record as “strong antiproliferative activity in at least 13 of the 16 cell lines studied”. For the same compound, the “anti-tumor effect against AML” value in assay [4] was “strong anti-tumor effect”. The “anti-tumor effect against CML” value in assay [5] is “strong anti-tumor effect”. The “anti-tumor effect against pancreatic carcinoma cells” value in assay [6] (25, 50 mg/kg, 5-day on, two-day off for two cycles) was “strong anti-tumor effect”. Moreover, the “anti-tumor effect of the combination” value in assay [6] (in combination with Abraxane) is “anti-tumor effect”.
